PMC11264232, “Are the metal identity and stoichiometry of metal complexes important for colchicine site binding and inhibition of tubulin polymerization?” (Dalton Transactions (Cambridge, England : 2003), 2024)
Several values for one entry are separate records, joined by “and”; a condition that tells them apart may be missing. Equal values may be shown once. Read-outs that look alike come from different tables or passages of the source. Marks after values point to notes of the source that are not given here.

Assays:
[1] = pKa by pH-potentiometric titration; assay type: physicochemical; settings: 30% (v/v) DMSO/H2O, 25.0 °C, I = 0.1 M (KCl), anoxic
Protocol: Therefore, the proton dissociation constants (pKa) of the proligands HL^1–HL^3 were determined under anoxic conditions by pH-potentiometric titrations (Fig. S14 in the ESI ^†). As this method requires relatively high compound concentrations (>1 mM), the measurements were performed in 30% (v/v) DMSO to achieve the required solubility. Three pKa values were determined for the proligands HL^1 and HL^2, whereas only two constants, as expected, were obtained for phenyl derivative HL^3 (Table 3). The constants obtained were assigned to the deprotonation NmorpholiniumH^+ (NmorphH^+), NhydrazineH (NhydrH) and OH moieties for HL^1 and HL^2, and to the NmorphH^+ and NhydrH for HL^3, respectively. It should be noted that we could not determine pKa values for the pyridinium group as its deprotonation in all three instances took place at fairly low pH values (pH < 2) due to the electron withdrawing effect of the protonated morpholinium moiety. The determined pKa values indicate that these compounds are in their neutral HL form at pH 7.4 and only a minor fraction (1–3%) is protonated ((HL)H^+) at the morpholinium nitrogen (Table 3).

[2] = system: A549 human lung adenocarcinoma cells; experiment: MTT viability assay, 24 h; settings: Homo sapiens, A549, 24 h, read-out: IC50 values A549
Protocol: (§2) We wanted to compare the cytotoxicity of proligands HL^1–HL^3 and of their Co(III) and Fe(III) complexes 1, 2 and 4, 5 on cell lines originating from the same tissue, so human lung carcinoma A549 cells and lung fibroblast MRC-5 cells were subjected to 24 h treatments.
(§3) The biological effects of selected metal complexes (1, 2, 4 and 5) and of their proligands (HL^1, HL^2 and HL^3) were tested more extensively on A549 human lung adenocarcinoma cells and on MRC-5 human lung fibroblast cells. Both cell lines were obtained from ATCC and maintained in DMEM cell culture media containing 1.0 g L^−1 glucose (Biosera, Nuaille, France) complemented with 10% fetal bovine serum (FBS), 2 mM L-glutamine, 0.01% streptomycin and 0.005% penicillin and were cultured under standard conditions in a 37 °C incubator at 5% CO2 and 95% humidity. The viability of A549 and of MRC-5 fibroblast cells upon exposure to the selected metal–ligand complexes and ligands were evaluated by the MTT assay. For this, 10 000 cells per well were seeded into 96-well plates and left to grow. On the next day the cells were exposed to 0, 5, 10, 20, 40 or 80 μM of each compound or to an equivalent volume of DMSO for 24 h. After the treatments, cells were washed with PBS and then were incubated with 0.5 mg mL^−1 MTT reagent (Sigma-Aldrich, St Louis, Missouri, USA) for 1 h at 37 °C. Finally, 100 μL of DMSO (Molar Chemicals, Halásztelek, Hungary) was added to each well, and the absorbance of samples was measured at 570 nm using a Synergy HTX plate reader (BioTek, Winooski, Vermont, USA). The viability measurements were repeated three times using 3 independent biological replicates.

[3] = system: MRC-5 human lung fibroblast cells; experiment: MTT viability assay, 24 h; settings: Homo sapiens, MRC5, 24 h, read-out: IC50 values MRC-5
Protocol: as §2, §3

[4] = n-octanol/water partitioning (shake-flask), log D; settings: n-octanol/buffered aqueous solution, pH 6
[5] = Cyclic voltammetry in DMSO/nBu4NPF6; assay type: physicochemical; settings: scan rate 100 mV s^−1
Protocol: Cyclic voltammetric experiments with 0.5 mM solutions of 1–3 in 0.1 M nBu4NPF6 (puriss quality from Fluka (Schwerte, Germany), dried under reduced pressure at 70 °C for 24 h before use) supporting electrolyte in DMSO (SeccoSolv max. 0.025% H2O, Merck) were performed under argon atmosphere using a three-electrode setup with a platinum disk or a glassy carbon disk working electrode (from Ionode, Australia), platinum wire as a counter electrode, and silver wire as a pseudo reference electrode. All potentials in voltammetric studies were quoted vs. ferricenium/ferrocene (Fc^+/Fc) redox couple. A Heka PG310USB (Lambrecht, Germany) potentiostat with a PotMaster 2.73 software package served for the potential control in voltammetric studies. In situ ultraviolet-visible-near-infrared (UV–Vis–NIR) spectroscopic and spectroelectrochemical measurements were performed on a spectrometer Avantes (Model AvaSpec-2048_14-USB2) in 1 cm quartz cuvette or the spectroelectrochemical cell kit ([…]3) with the Pt-microstructured honeycomb working electrode, purchased from Pine Research Instrumentation (Lyon, France). The cell was positioned in the CUV-UV Cuvette Holder (Ocean Optics, Ostfildern, Germany) connected to the diode-array UV–Vis–NIR spectrometer by optical fibres. UV–Vis–NIR spectra were processed using the AvaSoft 7.7 software package. Halogen and deuterium lamps were used as light sources (Avantes, Model AvaLight-DH-S-BAL, Apeldoorn, The Netherlands). EPR spectra were measured with a X-band cw-EPR spectrometers EMX and EMX plus (Bruker) at room temperature or 100 K. Spectroelectrochemical experiments were performed in a flat cell equipped with a Pt mesh working electrode using nBu4NPF6/DMSO electrolyte. Measurements in frozen solvent glass were done in MeCN/DMF 1 : 1 v/v. Complexes 4 and 5 were dissolved under ambient conditions, and complex 3 was reduced with a stoichiometric equivalent of cobaltocene in a N2 glovebox (N2 < 2 ppm, H2O < 1 ppm). The MeCN/DMF solutions were flash frozen in liquid N2 prior to transfer to the N2 flow cryostat precooled at 100 K inside the cavity of the EPR resonator. EPR spectra were analyzed with the Easyspin toolbox,[75] running on Matlab.

purified tubulin = experiment: Inhibition of tubulin polymerization; assay type: biochemical; settings: read-out: Inhibition of tubulin polymerization IC50 ± SD
From the text: As a reference for comparison, combretastatin A-4 (CA-4) and Cu(HL^1)Cl2 were used.
(§1) The methods used for determination of the IC50 values for tubulin assembly and inhibition of [^3H]colchicine binding were as described previously.[77]

[6] = system: tubulin (colchicine site); experiment: Inhibition of [3H]colchicine binding to tubulin; settings: tubulin 0.5 μM, [3H]colchicine 5 μM
From the text: as §1

Row | Compound | pKa ([1]; read-out: pKa (NhydrH)) | pKa ([1]; read-out: pKa (NmorphH^+)) | IC50 [2] [µM] | IC50 [3] [µM] | logD [4] | 1st oxidation potential (peak potential Ep) [5] | 1st reduction potential (E1/2 or Ep) [5] | 2nd reduction potential (E1/2 or Ep) [5] | IC50 (purified tubulin) [µM] | Inhibition of colchicine binding, % inhibition ± SD ([6]; 5 μM inhibitor) [%] | Inhibition of colchicine binding, % inhibition ± SD ([6]; 25 μM inhibitor) [%] | pKa ([1]; read-out: pKa (OH))
1 | S=C(N/N=C/c1cccc(CN2CCOCC2)n1)Nc1ccccc1 [HL^3, 6-morpholinomethyl-2-formylpyridine 4N-phenyl-3-thiosemicarbazone] | 10.44 ± 0.03 | 5.55 ± 0.02 | > 80 | > 80 | 2.06 | – | – | – | – | – | – | –
2 | Cc1cc(NC([S-])=NN=Cc2cccc(C[NH+]3CCOCC3)n2)cc(C)c1O.[Cl-].[Cl-].[Pd+2] [Complex 8, [Pd^II(HL^1)Cl]Cl] | – | – | – | – | – | 0.28 volts vs. Fc^+/Fc and 0.28^i* volts vs. Fc^+/Fc | −0.91^q volts vs. Fc^+/Fc | −1.28^q volts vs. Fc^+/Fc | 6.5 ± 1 | 13 ± 5 | 97 ± 1 | –
3 | Cc1cc(NC(=S)N/N=C/c2cccc(CN3CCOCC3)n2)cc(C)c1O [HL^1, 6-morpholinomethyl-2-formylpyridine 4N-(4-hydroxy-3,5-dimethylphenyl)-3-thiosemicarbazone] | 10.44 ± 0.03 | 5.54 ± 0.03 | 72.8 ± 1.22 | > 80 | 1.23 | – | – | – | – | – | – | 12.12 ± 0.02
4 | COc1ccc(/C=C\c2cc(OC)c(OC)c(OC)c2)cc1O [C-A4, combretastatin A-4, reference compound] | – | – | – | – | – | – | – | – | […] | 97 ± 0.5 | – | –
5 | C/C(=N\NC(=S)Nc1cc(C)c(O)c(C)c1)c1cccc(CN2CCOCC2)n1 [HL^2, 6-morpholinomethyl-2-acetylpyridine 4N-(4-hydroxy-3,5-dimethylphenyl)-3-thiosemicarbazone] | 10.41 ± 0.03 | 5.85 ± 0.04 | > 80 | > 80 | 1.5 | – | – | – | – | – | – | 12.23 ± 0.02
6 | Cc1cc(NC([S-])=NN=Cc2cccc(CN3CCOCC3)n2)cc(C)c1O.[Cl-].[Ni+2] [Complex 6, [Ni^II(L^1)]Cl] | – | – | – | – | – | 0.12 volts vs. Fc^+/Fc and 0.12^i* volts vs. Fc^+/Fc | −1.29 volts vs. Fc^+/Fc and −1.29^q volts vs. Fc^+/Fc | −1.87 volts vs. Fc^+/Fc and −1.87^q volts vs. Fc^+/Fc | > 20 | – | – | –
